The text below walks through data of patent US8765771B2, “Condensed pyridine or condensed pyrimidine derivative, and medicinal agent comprising same” (Kowa Co., Ltd., priority 2010, dated 2014).

The assay concerns Hamster pancreatic β cell strain HIT-T15 cells. Put plainly: Action of promoting insulin secretion (Test Example 1). The class given is cell-based. To be noted: Mesocricetus auratus, glucose 2 mM, 1 hour at 37° C., insulin in the supernatant, 0.0001 μM to 10 μM, read-out: EC50 (50% effect concentration, insulin secretion). How it is done: Action of Promoting Insulin Secretion
Hamster pancreatic β cell strain HIT-T15 cells were subcultured by using a Ham's F-12K culture medium containing penicillin (100 unit/mL), streptomycin (100 μg/mL) and 10% fetal bovine serum. The cells were sown on a 24-well cell culture plate, cultured at 37° C. for 48 hours, and washed with a 0.10 albumin KRBH buffer. Subsequently, the cells were allowed to stand in the same buffer at 37° C. for 1 hour. Glucose was added thereto so as to give a final concentration of 2 mM, and the compound of the present invention that had been dissolved in dimethylsulfoxide at a concentration of 1.000-fold of the respective concentrations (from 0.0001 μM to 10 μM at a common ratio of 10) was further added under a condition that the compound was included in an amount of 0.1 volume % in the buffer. After the addition of the compound of the present invention, the cells were allowed to stand at 37° C. for 1 hour, and the concentration of the insulin included in the supernatant was measured by an insulin kit (SCETI Medical Labo K. K.). A hamster insulin standard solution (SHIBAYAGI Co., Ltd.) was used as a standard solution. A control to which only dimethylsulfoxide had been added was used. The results are shown in Table 8 as the 50% effect concentrations (EC50 values, 50% effect concentrations)) of the respective subject compounds. The EC50 values were calculated by using a statistical analysis program, SAS Pre-Clinical Package Ver 5.0 (SAS institute Japan Co., Tokyo).

The structures appear in SMILES notation.

For the compound `CC(C)(C)OC(=O)N1CCC(c2coc3c(Oc4ccc(-n5cnnn5)cc4)ncnc23)CC1` [Example 41, tert-butyl 4-{4-[4-(1H-tetrazol-1-yl)phenoxy]furo[3,2-d]pyrimidin-7-yl}piperidine-1-carboxylate], the EC50 worked out at 42.9 nM. The value for `CS(=O)(=O)c1ccc(Nc2ncnc3c(C4CCN(c5ncc(Cl)cn5)CC4)coc23)c(F)c1` [Example 2, 7-[1-(5-chloropyrimidin-2-yl)piperidin-4-yl]-N-[2-fluoro-4-(methylsulfonyl)phenyl]furo[3,2-d]pyrimidine-4-amine] was 4 nM; that for `CC(C)(C)COC(=O)N1CCC(c2coc3c(Nc4ccc(S(C)(=O)=O)cc4F)ncnc23)CC1` [Example 35, neopentyl 4-(4-{[2-fluoro-4-(methylsulfonyl)phenyl]amino}furo[3,2-d]pyrimidin-7-yl)piperidine-1-carboxylate] was 58.4 nM. The value for `CCc1cnc(N2CCC(c3coc4c(Nc5ccc(S(C)(=O)=O)cc5F)ncnc34)CC2)nc1` [Example 3, 7-[1-(5-ethylpyrimidin-2-yl)piperidin-4-yl]-N-[2-fluoro-4-(methylsulfonyl)phenyl]furo[3,2-d]pyrimidine-4-amine] was 14.3 nM; that for `CS(=O)(=O)c1ccc(Nc2ncnc3c(C4CCN(C(=O)OCC(Cl)(Cl)Cl)CC4)coc23)c(F)c1` [Example 36, 2,2,2-trichloroethyl 4-(4-{[2-fluoro-4-(methylsulfonyl)phenyl]amino}furo[3,2-d]pyrimidin-7-yl)piperidine-1-carboxylate] was 18.7 nM; that for `CS(=O)(=O)c1ccc(Nc2ncnc3c(C4CCN(c5ncc(C(F)(F)F)cn5)CC4)coc23)c(F)c1` [Example 31, N-[2-fluoro-4-(methylsulfonyl)phenyl]-7-{1-[5-(trifluoromethyl)pyrimidin-2-yl]piperidin-4-yl}furo[3,2-d]pyrimidine-4-amine] was 4.5 nM. The value for `CS(=O)(=O)c1ccc(Nc2ncnc3c(C4CCN(S(=O)(=O)C5CCCCC5)CC4)coc23)c(F)c1` [Example 12, 7-[1-(cyclohexylsulfonyl)piperidin-4-yl]-N-[2-fluoro-4-(methylsulfonyl)phenyl]furo[3,2-d]pyrimidine-4-amine] was 9.1 nM. Take `CC(C)OC(=O)N1CCC(c2coc3c(Nc4ccc(S(C)(=O)=O)cc4F)ncnc23)CC1` [Example 8, isopropyl 4-(4-{[2-fluoro-4-(methylsulfonyl)phenyl]amino}furo[3,2-d]pyrimidin-7-yl)piperidine-1-carboxylate]: the EC50 is 83.5 nM.

For the compound `CS(=O)(=O)c1ccc(Nc2ncnc3c(C4CCN(c5ncc(Br)cn5)CC4)coc23)c(F)c1` [Example 5, 7-[1-(5-bromopyrimidin-2-yl)piperidin-4-yl]-N-[2-fluoro-4-(methylsulfonyl)phenyl]furo[3,2-d]pyrimidine-4-amine], the EC50 is 12.4 nM. The value for `CC(C)(C)OC(=O)N1CCC(c2coc3c(Oc4ccc(S(C)(=O)=O)c(F)c4)ncnc23)CC1` [Example 21, tert-butyl 4-{4-[3-fluoro-4-(methylsulfonyl)phenoxy]furo[3,2,d]pyrimidin-7-yl}piperidine-1-carboxylate] was 51.9 nM; that for `CS(=O)(=O)c1ccc(Nc2ncnc3c(C4CCN(C(=O)OCc5ccccc5)CC4)coc23)c(F)c1` [Example 7, benzyl 4-(4-{[2-fluoro-4-(methylsulfonyl)phenyl]amino}furo[3,2-d]pyrimidin-7-yl)piperidine-1-carboxylate] was 33.7 nM.

For `CC(C)(C)OC(=O)N1CCC(c2coc3c(Oc4ccc(S(C)(=O)=O)cc4)ncnc23)CC1` [Example 40, tert-butyl 4-(4-{4-(methylsulfonyl)phenoxy}furo[3,2-d]pyrimidin-7-yl)piperidine-1-carboxylate], the EC50 is 10.7 nM. In the case of `CS(=O)(=O)c1ccc(Nc2ncnc3c(C4CCN(S(=O)(=O)C5CC5)CC4)coc23)c(F)c1` [Example 11, 7-[1-(cyclopropylsulfonyl)piperidin-4-yl]-N-[2-fluoro-4-(methylsulfonyl)phenyl]furo[3,2-d]pyrimidine-4-amine], the EC50 is 76.9 nM. The value for `CS(=O)(=O)c1ccc(Nc2ncnc3c(C4CCN(C(=O)Oc5ccccc5)CC4)coc23)c(F)c1` [Example 37, phenyl 4-(4-{[2-fluoro-4-(methylsulfonyl)phenyl]amino}furo[3,2-d]pyrimidin-7-yl)piperidine-1-carboxylate] was 56.2 nM; that for `CS(=O)(=O)c1ccc(Nc2ncnc3c(C4CCN(c5ncc(F)cn5)CC4)coc23)c(F)c1` [Example 4, N-[2-fluoro-4-(methylsulfonyl)phenyl]-7-[1-(5-fluoropyrimidin-2-yl)piperidin-4-yl]furo[3,2-d]pyrimidine-4-amine] was 33.1 nM.

Turning to `CC(C)(C)OC(=O)N1CCC(c2csc3c(Nc4ccc(S(C)(=O)=O)cc4F)ncnc23)CC1` [Example 27, tert-butyl 4-(4-{[2-fluoro-4-(methylsulfonyl)phenyl]amino}thieno[3,2-d]pyrimidin-7-yl)piperidine-1-carboxylate], the EC50 came out at 50.7 nM. With `CC(C)(C)OC(=O)N1CCC(c2coc3c(N4CCc5cc(S(C)(=O)=O)ccc54)ncnc23)CC1` [Example 24, tert-butyl 4-{4-[5-(methylsulfonyl)indolin-1-yl]furo[3,2-d]pyrimidin-7-yl}piperidine-1-carboxylate] the figure was 3.6 nM; with `CS(=O)(=O)c1ccc(Nc2ncnc3c(C4CCN(c5ccc(C(F)(F)F)cn5)CC4)coc23)c(F)c1` [Example 6, N-[2-fluoro-4-(methylsulfonyl)phenyl]-7-{1-[5-(trifluoromethyl)pyridin-2-yl]piperidin-4-yl}furo[3,2-d]pyrimidine-4-amine], 20.5 nM.

As to `CC(C)(OC(=O)N1CCC(c2coc3c(Nc4ccc(S(C)(=O)=O)cc4F)ncnc23)CC1)C(F)(F)F` [Example 33, 1,1,1-trifluoro-2-methylpropan-2-yl 4-(4-{[2-fluoro-4-(methylsulfonyl)phenyl]amino}furo[3,2-d]pyrimidin-7-yl)piperidine-1-carboxylate], the EC50 stood at 15.1 nM. With `CC(C)(C)OC(=O)N1CCC(c2coc3c(Nc4ccc(S(C)(=O)=O)cc4F)ncnc23)CC1` [Example 1, Tert-Butyl 4-(4-{[2-fluoro-4-(methylsulfonyl)phenyl]amino}furo[3,2-d]pyrimidin-7-yl)piperidine-1-carboxylate] the figure was 5.3 nM; with `CCc1cnc(N2CCC(c3coc4c(N5CCc6cc(S(C)(=O)=O)ccc65)ncnc34)CC2)nc1` [Example 25, 7-[1-(5-ethylpyrimidin-2-yl)piperidin-4-yl]-4-[5-(methylsulfonyl)indolin-1-yl]furo[3,2-d]pyrimidine], 16.4 nM.
